Measured values taken from patent US10183973B2, “Solvate of cyclic peptide compound, preparation method for same, and uses thereof” (SHANGHAI TECHWELL BIOPHARMACEUTICAL CO., LTD, priority 2014, dated 2019).
*1 amine or outer side, *2 acyl side, *3 side chain or, on linkers, in order; H or OH if unused. Where a SMILES comes first, the peptide text is derived from it. Bridges are numbered along the chain shown (N, C = ends). [ ]: non-standard residue; d: D form. The star is where a group is joined. hTyr(3S-OH,4S-OH,3'-OSO3H) = N[C@H](C(=O)O)[C@H](O)[C@@H](O)c1ccc(O)c(OS(=O)(=O)O)c1; Orn(4R-OH,5R-OH) = O=C([C@H](C[C@@H](O)[C@@H](O)N[*:3])N[*:1])[*:2]; Pro(3S-OH,4S-Me) = C[C@H]1CN[C@H](C(=O)O)[C@H]1O; X1 = CCCCCOc1ccc(-c2cc(-c3ccc(C(=O)*)cc3)no2)cc1; Gln(3R-OH) = NC(=O)C[C@@H](O)[C@H](N)C(=O)O; Hyp = O=C(O)[C@@H]1C[C@@H](O)CN1

Assay: Purity and stability test (HPLC purity after sealed storage at 25° C. for 30 days)
Assay type: physicochemical
Details: for Purity of initial sample: HPLC purity before storage (baseline of stability test); for Purity of sample after stored ar 25° C. for 30 days: sealed, HPLC purity
Text: High performance liquid chromatography (HPLC) is a common method for detecting the purity of a compound, wherein a liquid is used as the mobile phase and a high-pressure transfusion system is used for pumping the mobile phase, such as single solvents with different polarities or a mixture of solvents at different proportions, buffers, into a column packed with a stationary phase. Each component is separated in the column, and then enters into a detector for detection, thereby analyzing a sample. In the present invention, HPLC is used for determining the purity of the compound of formula I and studying the stability of a sample.
HPLC detection method is listed as follows:
Analysis Column: YMC-ODS 250×4.6 mm, 5 μm;
Mobile phase: acetonitrile:phosphate buffer (pH 3.0)=45:70;
Column temperature: 35° C.;
Diluent: aqueous phosphate buffer;
Detection wavelength: 210 nm;
In this Example, the purity and stability of samples obtained in Comparative Examples and Examples were compared. The used method is described as follows:
The solvate of the compound of formula I prepared in Examples 2, the crystal of B82 type obtained in Comparative Example 1 and amorphous solids obtained in Example 1 were taken and sealed at 25° C. for 30 days respectively. And then the content of impurities in the sample was analyzed. Results for comparing the stability of the solvate of the compound of formula I according to the present invention, the crystal of B82 type and the amorphous solid are shown in the following table: […]

| SMILES | Purity of initial sample | Purity of sample after stored ar 25° C. for 30 days | stability compared with crystal of B82 type (solid-state stability, in words) |
| --- | --- | --- | --- |
| CCCCCOc1ccc(-c2cc(-c3ccc(C(=O)N[C@H]4C[C@@H](O)[C@@H](O)NC(=O)[C@@H]5[C@@H](O)[C@@H](C)CN5C(=O)[C@H]([C@H](O)CC(N)=O)NC(=O)[C@H]([C@H](O)[C@@H](O)c5ccc(O)c(OS(=O)(=O)[O-])c5)NC(=O)[C@@H]5C[C@@H](O)CN5C(=O)[C@H]([C@@H](C)O)NC4=O)cc3)no2)cc1.[Na+] [Solvate of the compound of formula I, Sodium 5-[(1S,2S)-2-[(3S,6S,9S,11R,15S,18S,20R,21R,24S,25S,26S)-3-[(R)-2-carbamoyl-1-hydroxyethyl]-11,20,21,25-tetrahydroxy-15-[(R)-1-hydroxyethyl]-26-methyl-2,5,8,14,17,23-hexaoxo-18-[4-[5-(4-pentoxyphenyl)isoxazol-3-yl]benzoylamino]-1,4,7,13,16,22-hexaazatricyclo[22.3.0.0^9,13]heptacosan-6-yl]-1,2-dihydroxyethyl]-2-hydroxy phenyl sulfate] (X1-[Orn(4R-OH,5R-OH)]T[Hyp][hTyr(3S-OH,4S-OH,3'-OSO3H)][Gln(3R-OH)][Pro(3S-OH,4S-Me)]; lactam 1-C) | 99.55% | 99.50% | better than that of the crystal of B82 type |
| CCCCCOc1ccc(-c2cc(-c3ccc(C(=O)N[C@H]4C[C@@H](O)[C@@H](O)NC(=O)[C@@H]5[C@@H](O)[C@@H](C)CN5C(=O)[C@H]([C@H](O)CC(N)=O)NC(=O)[C@H]([C@H](O)[C@@H](O)c5ccc(O)c(OS(=O)(=O)[O-])c5)NC(=O)[C@@H]5C[C@@H](O)CN5C(=O)[C@H]([C@@H](C)O)NC4=O)cc3)no2)cc1.[Na+] [Amorphous solids, Micafungin Sodium] (X1-[Orn(4R-OH,5R-OH)]T[Hyp][hTyr(3S-OH,4S-OH,3'-OSO3H)][Gln(3R-OH)][Pro(3S-OH,4S-Me)]; lactam 1-C) | 99.38% | 89.27% |  |
| CCCCCOc1ccc(-c2cc(-c3ccc(C(=O)N[C@H]4C[C@@H](O)[C@@H](O)NC(=O)[C@@H]5[C@@H](O)[C@@H](C)CN5C(=O)[C@H]([C@H](O)CC(N)=O)NC(=O)[C@H]([C@H](O)[C@@H](O)c5ccc(O)c(OS(=O)(=O)[O-])c5)NC(=O)[C@@H]5C[C@@H](O)CN5C(=O)[C@H]([C@@H](C)O)NC4=O)cc3)no2)cc1.[Na+] [Crystal of B82 type, Micafungin Sodium] (X1-[Orn(4R-OH,5R-OH)]T[Hyp][hTyr(3S-OH,4S-OH,3'-OSO3H)][Gln(3R-OH)][Pro(3S-OH,4S-Me)]; lactam 1-C) | 99.50% | 96.98% |  |
